19 compounds from patent US11040035B2, “3-oxo-2,6-diphenyl-2,3-dihydropyridazine-4-carboxamides” (BAYER PHARMA AKTIENGESELLSCHAFT, priority 2016, dated 2021) can be followed below.

Series [1] deals with AHR-regulated gene CYP1A1. As to the kind of experiment: In vitro assay 3: AHR-regulated CYP1A1 expression in human cell line (U937, qPCR).
For series [2], the target named is T1, AHR (Homo sapiens, UniProt P35869).
T1 sequence (P35869 11-848): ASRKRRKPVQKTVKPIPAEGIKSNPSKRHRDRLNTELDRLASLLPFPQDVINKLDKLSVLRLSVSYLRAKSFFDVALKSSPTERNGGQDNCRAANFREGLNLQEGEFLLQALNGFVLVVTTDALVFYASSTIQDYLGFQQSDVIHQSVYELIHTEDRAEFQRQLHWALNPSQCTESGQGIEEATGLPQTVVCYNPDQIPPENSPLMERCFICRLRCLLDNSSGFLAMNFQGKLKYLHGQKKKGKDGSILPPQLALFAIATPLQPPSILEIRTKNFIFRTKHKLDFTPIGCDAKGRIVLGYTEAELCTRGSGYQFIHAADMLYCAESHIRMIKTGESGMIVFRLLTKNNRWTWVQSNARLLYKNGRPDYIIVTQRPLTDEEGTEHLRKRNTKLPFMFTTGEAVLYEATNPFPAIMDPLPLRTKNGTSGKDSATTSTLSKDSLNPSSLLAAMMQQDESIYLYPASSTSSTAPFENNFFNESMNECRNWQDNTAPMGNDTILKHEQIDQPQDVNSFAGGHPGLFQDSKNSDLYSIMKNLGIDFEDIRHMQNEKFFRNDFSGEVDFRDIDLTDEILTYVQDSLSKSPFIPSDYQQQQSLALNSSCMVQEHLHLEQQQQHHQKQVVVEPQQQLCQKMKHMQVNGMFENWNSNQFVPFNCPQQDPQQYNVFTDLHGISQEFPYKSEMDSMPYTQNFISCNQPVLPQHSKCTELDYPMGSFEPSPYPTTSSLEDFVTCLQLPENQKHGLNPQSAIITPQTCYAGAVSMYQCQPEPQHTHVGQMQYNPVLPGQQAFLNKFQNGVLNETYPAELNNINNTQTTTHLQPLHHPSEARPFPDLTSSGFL
As to the kind of experiment: In vitro assay 2: agonism in human cell line (transactivation assay).

For series [3], the target named is T1, AHR. As to the kind of experiment: In vitro assay 1: antagonism in human cell line (transactivation assay, kynurenic acid prestimulated). As to conditions: Assay 1: AHR-luc Hum Antagonism IC50 [M], 150 μM kynurenic acid, 20 hours, firefly luciferase.
The mark [4] stands for this setting: Homo sapiens, U-937, 6 h, read-out: Assay 3: Hum CYP1A1 Antagonism IC50 [M], U937 cells, 200 μM KA, 6 hours, qPCR.
The mark [5] stands for this setting: Assay 2: AHR-luc Hum Agonism IC50 [M], no kynurenic acid, 20 hours, firefly luciferase.
The mark [6] stands for this setting: read-out: Assay 3: Hum CYP1A1 Antagonism IC50, U937 cells, 200 μM KA, 6 hours, qPCR.
The mark [7] stands for this setting: read-out: Assay 2: AHR-luc Hum Agonism IC50, no kynurenic acid, 20 hours, firefly luciferase.

Where two headings read alike, the source gives them in different places. Bounds are passed on as bounds.

As usually defined, the IC50 is the midpoint of a concentration-inhibition curve. For the compound `COC(=O)[C@@H](CO)NC(=O)c1cc(-c2ccc(Cl)cc2)nn(-c2cccc(F)c2)c1=O` [Example 315, methyl N-{[6-(4-chlorophenyl)-2-(3-fluorophenyl)-3-oxo-2,3-dihydropyridazin-4-yl]carbonyl}-D-serinate], the IC50 in series [1] (setting [4]) was 2e-06 M; against AHR [2] (setting [5]), more than 2e-05 M; against AHR [3] it was 8.53e-08 M.
As to `O=C(NCC(O)C(F)(F)F)c1cc(-c2ccc(C(F)F)cc2)nn(-c2cccc(F)c2)c1=O` (single isomer, unassigned) [Example 95, 6-[4-(Difluoromethyl)phenyl]-2-(3-fluorophenyl)-3-oxo-N-(3,3,3-trifluoro-2-hydroxypropyl)-2,3-dihydropyridazine-4-carboxamide], the IC50 in series [1] (setting [6]) is 7.63e-09 M; against AHR [2] (setting [5]), more than 2e-05 M; on AHR [3] it was 6.77e-09 M.
The like results for `CC(C)C(O)CNC(=O)c1cc(-c2ccc(Cl)cc2)nn(-c2cc(F)cc(F)c2)c1=O` (single isomer, unassigned) [Example 49, 6-(4-Chlorophenyl)-2-(3,5-difluorophenyl)-N-(2-hydroxy-3-methylbutyl)-3-oxo-2,3-dihydropyridazine-4-carboxamide] were, in that order, 4.92e-08 M, more than 2e-05 M and 3.42e-08 M.
Regarding `C[C@@H](CO)NC(=O)c1cc(-c2ccc(Cl)cc2)nn(-c2cc(F)cc(F)c2)c1=O` [Example 47, 6-(4-Chlorophenyl)-2-(3,5-difluorophenyl)-N-[(2S)-1-hydroxypropan-2-yl]-3-oxo-2,3-dihydropyridazine-4-carboxamide], the IC50 is 2.52e-08 M in series [1] (setting [4]), more than 2e-05 M against AHR [2] (setting [5]) and 3.08e-08 M at AHR [3].
Turning to `CC(C)[C@@H](CO)NC(=O)c1cc(-c2ccc(OC(F)(F)F)cc2)nn(-c2cccc(F)c2)c1=O` [Example 168, 2-(3-Fluorophenyl)-N-[(2S)-1-hydroxy-3-methylbutan-2-yl]-3-oxo-6-[4-(trifluoromethoxy)phenyl]-2,3-dihydropyridazine-4-carboxamide], the figures for the 50% inhibitory concentration (IC50) (in series [1] (setting [4]); against AHR [2] (setting [5]); at AHR [3]) were 2.16e-08 M, more than 2e-05 M and 6.92e-09 M, respectively.
For `O=C(N[C@H]1CCC[C@@H]1O)c1cc(-c2ccc(Cl)cc2)nn(-c2cccc(F)c2)c1=O` (single isomer, unassigned) [Example 124, 6-(4-Chlorophenyl)-2-(3-fluorophenyl)-N-(trans-2-hydroxycyclopentyl)-3-oxo-2,3-dihydropyridazine-4-carboxamide] the same measures were 3.59e-08 M, more than 2e-05 M and 3.65e-08 M.
For `Cc1cccc(-n2nc(-c3ccc(Cl)cc3)cc(C(=O)N[C@@H](C)CO)c2=O)c1` [Example 369, 6-(4-chlorophenyl)-N-[(2S)-1-hydroxypropan-2-yl]-2-(3-methylphenyl)-3-oxo-2,3-dihydropyridazine-4-carboxamide] the same measures were more than 1e-06 M, more than 2e-05 M and 9.73e-07 M.
Take `C[C@H](O)[C@H](C)NC(=O)c1cc(-c2ccc(OC(F)(F)F)cc2)nn(-c2cccc(F)c2)c1=O` [Example 185, 2-(3-Fluorophenyl)-N-[(2S,3S)-3-hydroxybutan-2-yl]-3-oxo-6-[4-(trifluoromethoxy)phenyl]-2,3-dihydropyridazine-4-carboxamide]: the IC50 in series [1] (setting [4]) is 8.06e-08 M; against AHR [2] (setting [5]), more than 2e-05 M; against AHR [3], 3.9e-08 M.
For `O=C(N[C@H](CO)Cc1ccccc1)c1cc(-c2ccc(Cl)cc2)nn(-c2cccc(F)c2)c1=O` [Example 220, (−)-6-(4-Chlorophenyl)-2-(3-fluorophenyl)-N-[(2S)-1-hydroxy-3-phenylpropan-2-yl]-3-oxo-2,3-dihydropyridazine-4-carboxamide] the same measures were 6e-07 M, more than 2e-05 M and 1.03e-07 M.
The like results for `O=C(NCC(O)C(F)(F)F)c1cc(-c2ccc(Cl)cc2)nn(-c2cc(F)cc(F)c2)c1=O` (single isomer, unassigned) [Example 45, 6-(4-Chlorophenyl)-2-(3,5-difluorophenyl)-3-oxo-N-(3,3,3-trifluoro-2-hydroxypropyl)-2,3-dihydropyridazine-4-carboxamide] were, in that order, 1.18e-08 M, more than 2e-05 M and 1.02e-08 M.
The like results for `O=C(N[C@H]1CC[C@@H]1O)c1cc(-c2ccc(Cl)cc2)nn(-c2cccc(F)c2)c1=O` (racemic) [Example 348, 6-(4-chlorophenyl)-2-(3-fluorophenyl)-N-(trans-2-hydroxycyclobutyl)-3-oxo-2,3-dihydropyridazine-4-carboxamide] were, in that order, 1.37e-07 M, more than 2e-05 M and 5.11e-08 M.
Take `CC(O)CCNC(=O)c1cc(-c2ccc(C(F)(F)F)cc2)nn(-c2cccc(F)c2)c1=O` (racemic) [Example 247, 2-(3-Fluorophenyl)-N-[(3RS)-3-hydroxybutyl]-3-oxo-6-[4-(trifluoromethyl)phenyl]-2,3-dihydropyridazine-4-carboxamide]: the IC50 in series [1] (setting [4]) was 1.71e-07 M; against AHR [2] (setting [5]), more than 2e-05 M; on AHR [3] it was 8.35e-08 M.
For `CC(C)C[C@@H](CO)NC(=O)c1cc(-c2ccc(Cl)cc2)nn(-c2cccc(F)c2)c1=O` [Example 37, 6-(4-Chlorophenyl)-2-(3-fluorophenyl)-N-[(2S)-1-hydroxy-4-methylpentan-2-yl]-3-oxo-2,3-dihydropyridazine-4-carboxamide] the same measures were 1.56e-07 M, more than 2e-05 M and 1.31e-07 M.
For `O=C(NCC(O)C(F)(F)F)c1cc(-c2ccc(C(F)F)cc2)nn(-c2cccc(F)c2)c1=O` (single isomer, unassigned) [Example 96, 6-[4-(Difluoromethyl)phenyl]-2-(3-fluorophenyl)-3-oxo-N-(3,3,3-trifluoro-2-hydroxypropyl)-2,3-dihydropyridazine-4-carboxamide], the IC50 in series [1] (setting [6]) was 4.03e-08 M; at AHR [2] (setting [7]) it was more than 2e-05 M; at AHR [3] it was 2.92e-08 M.
Consider `COC[C@H](CO)NC(=O)c1cc(-c2ccc(C(F)(F)F)cc2)nn(-c2cccc(F)c2)c1=O` [Example 257, (+)-2-(3-Fluorophenyl)-N-[(2S)-1-hydroxy-3-methoxypropan-2-yl]-3-oxo-6-[4-(trifluoromethyl)phenyl]-2,3-dihydropyridazine-4-carboxamide], for which the IC50 is 1.34e-07 M in series [1] (setting [4]), more than 2e-05 M against AHR [2] (setting [5]) and 6.37e-08 M on AHR [3].
For `O=C(N[C@@H]1CCCC[C@@H]1O)c1cc(-c2ccc(Cl)cc2)nn(-c2cccc(F)c2)c1=O` (relative stereo) [Example 103, 6-(4-Chlorophenyl)-2-(3-fluorophenyl)-N-(cis-2-hydroxycyclohexyl)-3-oxo-2,3-dihydropyridazine-4-carboxamide] the same measures were 4.47e-09 M, more than 2e-05 M and 1.59e-08 M.
For `CC(O)C(C)NC(=O)c1cc(-c2ccc(Cl)cc2)nn(-c2cccc(F)c2)c1=O` (stereo not drawn) [Example 131, 6-(4-Chlorophenyl)-2-(3-fluorophenyl)-N-(3-hydroxybutan-2-yl]-3-oxo-2,3-dihydropyridazine-4-carboxamide] the same measures were 8.26e-08 M, more than 2e-05 M and 4.69e-08 M.
In the case of `O=C(NCC(O)C(F)(F)F)c1cc(-c2ccc(OC(F)(F)F)cc2)nn(-c2cccc(F)c2)c1=O` (single isomer, unassigned) [Example 184, 2-(3-Fluorophenyl)-3-oxo-N-(3,3,3-trifluoro-2-hydroxypropyl)-6-[4-(trifluoromethoxy)phenyl]-2,3-dihydropyridazine-4-carboxamide], the IC50 in series [1] (setting [6]) was 1.29e-07 M; at AHR [2] (setting [7]), more than 2e-05 M; against AHR [3] it was 1.34e-07 M.
With `O=C(NC(CO)C1CCOC1)c1cc(-c2ccc(OC(F)(F)F)cc2)nn(-c2cccc(F)c2)c1=O` (single isomer, unassigned) [Example 176, 2-(3-Fluorophenyl)-N-[2-hydroxy-1-(tetrahydrofuran-3-yl)ethyl]-3-oxo-6-[4-(trifluoromethoxy)phenyl]-2,3-dihydropyridazine-4-carboxamide], the IC50 in series [1] (setting [6]) is 1.02e-07 M; at AHR [2] (setting [7]), more than 2e-05 M; against AHR [3], 1.71e-07 M.
